In patent US7713966B2, “Heterobicyclic metalloprotease inhibitors” (Alantos Pharmaceuticals Holding, Inc., priority 2006, dated 2010):

Columns and labels:
Assay type in all cases: biochemical
[1] = target: T1, activated MMP-8 enzyme (Homo sapiens, UniProt P22894); test: Assay for determining MMP-8 inhibition (OmniMMP fluorescent substrate); details: read-out: MMP-8 Activity (IC50 MMP-8), Group
T1 construct: purchased Calbiochem 444229
Experimental: The typical assay for MMP-8 activity is carried out in assay buffer comprised of 50 mM Tris, pH 7.5, 150 mM NaCl, 5 mM CaCl2 and 0.05% Brij-35. Different concentrations of tested compounds are prepared in assay buffer in 50 μL aliquots. 10 μL of a 50 nM stock solution of activated MMP-8 enzyme (Calbiochem, Cat. No. 444229) is added to the compound solution. The mixture of enzyme and compound in assay buffer is thoroughly mixed and incubated for 10 min at 37° C. Upon the completion of incubation, the assay is started by addition of 40 μL of a 10 μM stock solution of OmniMMP fluorescent substrate (Biomol, Cat. No. P-126). The time-dependent increase in fluorescence is measured at the 320 nm excitation and 390 nm emission by an automatic plate multireader at 37° C. The IC50 values are calculated from the initial reaction rates.

[2] = target: T2, catalytic domain of MMP-13 enzyme (Homo sapiens, UniProt P45452); test: Assay for determining MMP-13 inhibition (fluorescent substrate); details: read-out: MMP-13 Activity (IC50 MMP-13), Group
T2 construct: catalytic domain of MMP-13 enzyme (produced by Alantos or commercially available from Invitek (Berlin), Cat. # 30100812); purchased Invitek (Berlin) 30100812
Experimental: The typical assay for MMP-13 activity is carried out in assay buffer comprised of 50 mM Tris, pH 7.5, 150 mM NaCl, 5 mM CaCl2 and 0.05% Brij-35. Different concentrations of tested compounds are prepared in assay buffer in 50 μL aliquots. 10 μL of a 50 nM stock solution of catalytic domain of MMP-13 enzyme (produced by Alantos or commercially available from Invitek (Berlin), Cat. # 30100812) is added to the compound solution. The mixture of enzyme and compound in assay buffer is thoroughly mixed and incubated for 10 min at room temperature. Upon the completion of incubation, the assay is started by addition of 40 μl of a 12.5 μM stock solution of MMP-13 fluorescent substrate (Calbiochem, Cat. No. 444235). The time-dependent increase in fluorescence is measured at the 320 nm excitation and 390 nm emission by automatic plate multireader. The IC50 values are calculated from the initial reaction rates.

[3] = target: T3, catalytic domain of MMP-3 enzyme (Homo sapiens, UniProt P08254); test: Assay for determining MMP-3 inhibition (NFF-3 fluorescent substrate); details: read-out: MMP-3 Activity (IC50 MMP-3), Group
T3 construct: catalytic domain of MMP-3 enzyme (Biomol, Cat. No. SE-109); purchased Biomol SE-109
Experimental: The typical assay for MMP-3 activity is carried out in assay buffer comprised of 50 mM MES, pH 6.0, 10 mM CaCl2 and 0.05% Brij-35. Different concentrations of tested compounds are prepared in assay buffer in 50 μL aliquots. 10 μL of a 100 nM stock solution of the catalytic domain of MMP-3 enzyme (Biomol, Cat. No. SE-109) is added to the compound solution. The mixture of enzyme and compound in assay buffer is thoroughly mixed and incubated for 10 min at room temperature. Upon the completion of incubation, the assay is started by addition of 40 μL of a 12.5 μM stock solution of NFF-3 fluorescent substrate (Calbiochem, Cat. No. 480455). The time-dependent increase in fluorescence is measured at the 330 nm excitation and 390 nm emission by an automatic plate multireader. The IC50 values are calculated from the initial reaction rates.

T3 sequence (P08254 100-272 limits assumed): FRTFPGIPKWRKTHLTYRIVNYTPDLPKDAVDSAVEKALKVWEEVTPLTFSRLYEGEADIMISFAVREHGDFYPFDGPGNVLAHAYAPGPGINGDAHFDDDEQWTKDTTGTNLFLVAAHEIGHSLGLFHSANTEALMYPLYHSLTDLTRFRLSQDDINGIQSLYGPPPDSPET
T1 sequence (P22894 101-467): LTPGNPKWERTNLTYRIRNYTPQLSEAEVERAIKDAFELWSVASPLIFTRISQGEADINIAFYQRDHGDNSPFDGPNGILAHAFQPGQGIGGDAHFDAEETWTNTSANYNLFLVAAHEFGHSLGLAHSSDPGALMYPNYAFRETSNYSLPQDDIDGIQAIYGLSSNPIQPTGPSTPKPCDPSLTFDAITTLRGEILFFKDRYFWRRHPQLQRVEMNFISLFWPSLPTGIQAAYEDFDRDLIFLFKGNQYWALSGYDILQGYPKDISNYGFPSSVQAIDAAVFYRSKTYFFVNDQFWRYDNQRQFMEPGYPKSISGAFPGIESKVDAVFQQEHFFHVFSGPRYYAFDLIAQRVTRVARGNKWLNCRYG

Structure (SMILES)	IC50 [1] [nM]	IC50 [2] [nM]	IC50 [3] [nM]
O=C1COc2ccc(CNC(=O)c3nc4scc(-c5cccs5)c4c(=O)[nH]3)cc2N1 [2/49]	250 to 20000		< 250
O=C1COc2ccc(CNC(=O)c3nc4scc(-c5nccs5)c4c(=O)[nH]3)cc2N1 [2/265]	250 to 20000	< 100	< 250
COc1ccc2nc(C(=O)NCc3ccc4c(c3)NC(=O)CO4)[nH]c(=O)c2c1 [2/71]			< 250
O=C1COc2ccc(CNC(=O)c3nc4cccc(NCc5ccccc5)c4c(=O)[nH]3)cc2N1 [36/3]			250 to 20000
O=C1COc2ccc(CNC(=O)c3nc4[nH]ncc4c(=O)[nH]3)cc2N1 [39/13]		100 to 20000	250 to 20000
Nc1c(N2CCc3ccc(CNC(=O)c4nc5scc(-c6cccs6)c5c(=O)[nH]4)cc3C2)c(=O)c1=O [2/51]	250 to 20000	< 100	< 250
O=C(Cc1csc2nc(C(=O)NCc3ccc4c(c3)NC(=O)CO4)[nH]c(=O)c12)NCS(=O)(=O)O [2/271]		< 100	250 to 20000
Cc1c(CC(=O)O)sc2nc(C(=O)NCc3ccc4c(c3)NC(=O)CO4)[nH]c(=O)c12 [4/12]		< 100	250 to 20000
CC(=O)NCc1ccc2nc(C(=O)NCc3ccc4c(c3)NC(=O)CO4)[nH]c(=O)c2c1 [2/91]			< 250
O=C1COc2ccc(CNC(=O)c3nc4scc(C(F)(F)F)c4c(=O)[nH]3)cc2N1 [2/86]	250 to 20000	< 100	< 250
COC(=O)c1cccc2nc(C(=O)NCc3ccc4c(c3)NC(=O)CO4)[nH]c(=O)c12 [Example 36]	250 to 20000	< 100	250 to 20000
Nc1c(N2CCc3ccc(CNC(=O)c4nc5scc(-c6ccco6)c5c(=O)[nH]4)cc3C2)c(=O)c1=O [2/98]	250 to 20000	< 100	< 250
Cc1nsc2nc(C(=O)NCc3ccc4c(c3)CN(c3c(N)c(=O)c3=O)CC4)[nH]c(=O)c12 [2/134]	250 to 20000	100 to 20000	< 250
C[C@@H](NC(=O)c1ccccc1)c1ccc2nc(C(=O)NCc3ccc4c(c3)NC(=O)CO4)[nH]c(=O)c2c1 [29/1]	< 250	< 100	250 to 20000
Nc1c(N2CCc3ccc(CNC(=O)c4nc5cc(F)c(F)cc5c(=O)[nH]4)cc3C2)c(=O)c1=O [39/24]	250 to 20000	< 100	
Nc1c(N2CCc3ccc(CNC(=O)c4nc5scc(-c6cnccn6)c5c(=O)[nH]4)cc3C2)c(=O)c1=O [2/186]		< 100	< 250

Structure (SMILES)	IC50 [1] [nM]	IC50 [2] [nM]	IC50 [3] [nM]
O=C1COc2ccc(CNC(=O)c3nc4scc(-c5cnccn5)c4c(=O)[nH]3)cc2N1 [2/185]	250 to 20000	< 100	< 250
O=C1COc2ccc(CNC(=O)c3nc4ccsc4c(=O)[nH]3)cc2N1 [2/20]	250 to 20000	< 100	250 to 20000
Cc1csc2nc(C(=O)NCc3ccc4c(c3)CN(c3c(N)c(=O)c3=O)CC4)[nH]c(=O)c12 [2/10]	< 250	< 100	< 250
Cc1c(CO)sc2nc(C(=O)NCc3ccc4c(c3)NCCO4)[nH]c(=O)c12 [Example 20c]	< 250	< 100	
C#Cc1ccc2nc(C(=O)NCc3ccc4c(c3)NC(=O)CO4)[nH]c(=O)c2c1 [Example 8]	< 250	< 100	
C=Cc1ccc2nc(C(=O)NCc3ccc4c(c3)NC(=O)CO4)[nH]c(=O)c2c1 [2/69]	< 250	< 100	
Nc1ccc2nc(C(=O)NCc3ccc4c(c3)NC(=O)CO4)[nH]c(=O)c2c1 [Example 5]	< 250	< 100	
Nc1c(N2CCc3ccc(CNC(=O)c4nc5scc(-c6ccccc6)c5c(=O)[nH]4)cc3C2)c(=O)c1=O [2/110]	250 to 20000	< 100	250 to 20000
Cc1sc2nc(C(=O)NCc3ccc4c(c3)NC(=O)CO4)[nH]c(=O)c2c1-c1ccccc1 [2/105]	250 to 20000		250 to 20000
Cc1c(Br)sc2nc(C(=O)NCc3ccc4c(c3)NC(=O)CO4)[nH]c(=O)c12 [2/11]	< 250	< 100	250 to 20000
Cc1sc2nc(C(=O)NCc3ccc4c(c3)NC(=O)CO4)[nH]c(=O)c2c1C [2/46]	< 250	< 100	250 to 20000
CNC(=O)Cc1csc2nc(C(=O)NCc3ccc4c(c3)NC(=O)CO4)[nH]c(=O)c12 [2/157]	< 250	< 100	
C[C@@H](Nc1cccc2nc(C(=O)NCc3ccc4c(c3)NC(=O)CO4)[nH]c(=O)c12)c1ccccc1 [36/2]	< 250	< 100	
O=C1COc2ccc(CNC(=O)c3nc4cc(C(F)(F)F)ccc4c(=O)[nH]3)cc2N1 [2/43]	< 250	100 to 20000	
CCc1ccc2nc(C(=O)NCc3ccc4c(c3)NC(=O)CO4)[nH]c(=O)c2c1 [2/70]	< 250	< 100	

More lines, now with the values ahead:

IC50 [1] [nM]	IC50 [2] [nM]	IC50 [3] [nM]	Structure (SMILES)
< 250	< 100	250 to 20000	O=C1COc2ccc(CNC(=O)c3nc4c(c(=O)[nH]3)CCCC4)cc2N1 [2/55]
< 250	< 100	250 to 20000	Cc1sc2nc(C(=O)NCc3ccc4c(c3)NC(=O)CO4)[nH]c(=O)c2c1C(C)c1ccccc1 (stereo not shown) [2/373]
< 250	< 100	< 250	Cc1c(CC(=O)O)sc2nc(C(=O)NCc3ccc4c(c3)CN(c3c(N)c(=O)c3=O)CC4)[nH]c(=O)c12 [4/13]
< 250	< 100	250 to 20000	CN(C)C(=O)Cc1csc2nc(C(=O)NCc3ccc4c(c3)NC(=O)CO4)[nH]c(=O)c12 [2/160]
< 250	< 100	< 250	N#Cc1ccc2nc(C(=O)NCc3ccc4c(c3)NC(=O)CO4)[nH]c(=O)c2c1 [Example 9]
< 250	< 100	250 to 20000	Cc1sc2nc(C(=O)NCc3ccc4c(c3)NC(=NC#N)CO4)[nH]c(=O)c2c1C [2/221]
< 250	< 100	< 250	N#CCc1csc2nc(C(=O)NCc3ccc4c(c3)NC(=O)CO4)[nH]c(=O)c12 [Example 19]
< 250	< 100	< 250	O=C1COc2ccc(CNC(=O)c3nc4ccc(Br)cc4c(=O)[nH]3)cc2N1 [Example 2/21]
< 250	< 100	< 250	O=C1COc2ccc(CNC(=O)c3nc4ccc(F)cc4c(=O)[nH]3)cc2N1 [2/23]
< 250	< 100	250 to 20000	CC(C)(C)OC(=O)NCc1ccc2nc(C(=O)NCc3ccc4c(c3)NC(=O)CO4)[nH]c(=O)c2c1 [Example 14]
< 250	< 100	250 to 20000	O=C1COc2ccc(CNC(=O)c3nc4cc(Br)ccc4c(=O)[nH]3)cc2N1 [2/39]
< 250	< 100	< 250	COc1cccc2nc(C(=O)NCc3ccc4c(c3)NC(=O)CO4)[nH]c(=O)c12 [Example 35]
< 250	< 100	250 to 20000	O=C1COc2ccc(CNC(=O)c3nc4ccc(CNC(=O)c5ccccc5)cc4c(=O)[nH]3)cc2N1 [2/93]
< 250	< 100	< 250	O=C1COc2ccc(CNC(=O)c3nc4cccc(F)c4c(=O)[nH]3)cc2N1 [2/74]
< 250		< 250	O=C1COc2ccc(CNC(=O)c3nc4ccc(Cl)cc4c(=O)[nH]3)cc2N1 [2/26]
< 250		250 to 20000	CNC(=O)C(C)c1csc2nc(C(=O)NCc3ccc4c(c3)NC(=O)CO4)[nH]c(=O)c12 (stereo not shown) [2/183]
